2 compounds from US4883869A, “Novel beta-lactams containing amino acid substituents” (The Upjohn Company, priority 1988, dated 1989) can be followed below.

Molecules are shown by their SMILES. Counter-ions that a name gives are not always drawn. A value given as a limit tells only on which side of the number the result lay.

What all share (assay): Minimum inhibitory concentration by agar dilution, Mueller Hinton Agar (NCCLS M7-A)
What all share (assay type): cell-based
For orientation: In agar dilution the substance is mixed into plates at graded concentrations.

One test relates to Citrobacter freundii. Conditions: Culture No. 3507, MHA, 35° C., 20 hours. The protocol:
(§1) The compounds of this invention and their respective pharmaceutically acceptable salts have antibiotic activity against a variety of gram-negative bacteria including Escherichia coli, Klebsiella pneumoniae, and Pseudomonas aeruginosa. The compounds are useful for treating bacterial infections in animals, including and most preferably humans. Compounds of the invention are tested for in vitro antimicrobial activity using standard testing procedures such as the determination of minimum inhibitory concentration (MIC) by methods described in "Methods for Dilution Antimicrobial Susceptibility Tests for Bacteria That Grow Aerobically" (M7-A) Published December 1985 by the National Committee for Clinical Laboratory Standards, 771 East Lancaster Avenue, Villanova, PA 19084. Briefly, MIC values are determined in unsupplemented Mueller Hinton Agar (MHA). The compounds tested are diluted serially into molten MHA at 47° C. The agar is poured into petri dishes and allowed to harden. The various bacteria used for testing are grown overnight on MHA at 35° C. and transferred to Tryptiease Soy Broth (TSB) until a turbidity of 0.5 McFarland standard is obtained. The bacteria are diluted one to twenty in TSB and inoculated on the plates (1 μl using a Steers replicator).

A further test has as its system Enterobacter cloacae. The note with it: 20 h, 35° C. The protocol: as §1
Another test has as its system Escherichia coli. The note with it: 20 h, 35° C. The protocol:
as §1

For the next test, the system named is Klebsiella oxytoca. Conditions: 20 h, 35° C. The protocol:
as §1

Another test has as its system Klebsiella pneumoniae. Conditions: Culture No. 58, MHA, 35° C., 20 hours. How it is done: as §1
Another test concerns Proteus vulgaris. The note with it: Culture No. 9679, MHA, 35° C., 20 hours. The protocol: as §1
The next test has as its system Pseudomonas aeruginosa. The note with it: 20 h, 35° C. The protocol:
as §1

The test system of another test is Serratia marcescens. Conditions: Culture No. 6888, MHA, 35° C., 20 hours. The protocol: as §1
The next test deals with Staphylococcus aureus. Conditions: MHA, 35° C., 20 hours; for MIC: Staphylococcus aureus, Culture No. 6675. The protocol:
as §1

A further test relates to Streptococcus faecalis. The note with it: Enterococcus faecalis; Culture No. 694; MHA, 35° C., 20 hours. How it is done: as §1
Another test relates to Streptococcus pneumoniae. The note with it: Culture No. 41, MHA, 35° C., 20 hours. How it is done:
as §1

A further test deals with Streptococcus pyogenes. Conditions: Culture No. 152, MHA, 35° C., 20 hours. How it is done:
as §1

Consider `Nc1nc(C(=NOCC(=O)O)C(=O)NC2C(=O)N(S(=O)(=O)O)C2COC(=O)CNC=O)cs1` (mixture of isomers) [Compound 7, Cis-(±)-[2'-(2"-amino-4"-thiazolyl)-(Z)-2'-(1"-carboxymethoxy)imino]acetamido-4-[N-formylglycinoyloxymethyl]-2-oxo-1-azetidinesulfonic acid monopotassium salt], for which the MIC – broadly, the smallest concentration in the dilution series that meets the test's criterion for growth inhibition – against Citrobacter freundii came out at 0.125 µg/mL; against Enterobacter cloacae (Culture No. 9381, MHA), 64 µg/mL; in the test on Enterobacter cloacae (Culture No. 9382, MHA), 0.125 µg/mL; in the test with Escherichia coli (Culture No. 311, MHA) it was 0.06 µg/mL; with Escherichia coli (Culture No. 9379, MHA), 0.125 µg/mL; in the test on Escherichia coli (Culture No. 9380, MHA), 0.25 µg/mL. Also, the MIC with Escherichia coli (Culture No. 9451, MHA) was 0.125 µg/mL; with Klebsiella oxytoca (Culture No. 9383, MHA) it was 0.5 µg/mL; against Klebsiella oxytoca (Culture No. 9384, MHA), 0.06 µg/mL; against Klebsiella pneumoniae, 0.06 µg/mL; in the test with Proteus vulgaris, less than 0.03 µg/mL; in the test with Pseudomonas aeruginosa (Culture No. 6432, MHA), 8 µg/mL. In addition, the MIC with Pseudomonas aeruginosa (Culture No. 6676, MHA) was 4 µg/mL; against Pseudomonas aeruginosa (Culture No. 9191, MHA) it was 4 µg/mL; with Pseudomonas aeruginosa (Culture No. 30133, MHA) it was 8 µg/mL; in the test on Serratia marcescens, 0.25 µg/mL; against Staphylococcus aureus, greater than 128 µg/mL; in the test on Streptococcus faecalis, greater than 128 µg/mL. The MIC against Streptococcus pneumoniae worked out at 64 µg/mL; with Streptococcus pyogenes, 16 µg/mL. Moreover, the “Minimum Inhibitory Concentration” value in the test on Staphylococcus aureus (Culture No. 3665) and in the test with Staphylococcus aureus (Culture No. 6685) was greater than 128 MCG per ML in each case.
In the case of `NCC(=O)OCC1C(NC(=O)C(=NOCC(=O)O)c2csc(N)n2)C(=O)N1S(=O)(=O)O` (mixture of isomers) [Compound 11, Cis-(±)-3-[[2'-(2"-amino-4"-thiazolyl)-(Z)-2'-(1'"-carboxymethoxy)imino]acetamido]-4-[N-glycinoyloxymethyl]-2-oxo-1-azetidinesulfonic acid], the MIC is 0.25 µg/mL in the test with Citrobacter freundii; 64 µg/mL against Enterobacter cloacae (Culture No. 9381, MHA); 0.25 µg/mL in the test with Enterobacter cloacae (Culture No. 9382, MHA); 0.125 µg/mL in the test with Escherichia coli (Culture No. 311, MHA); 0.25 µg/mL in the test on Escherichia coli (Culture No. 9379, MHA); 0.25 µg/mL in the test with Escherichia coli (Culture No. 9380, MHA). Besides, the minimum inhibitory concentration (MIC) came to 1 µg/mL against Klebsiella oxytoca (Culture No. 9383, MHA); 0.125 µg/mL against Klebsiella oxytoca (Culture No. 9384, MHA); 0.125 µg/mL against Klebsiella pneumoniae; 0.125 µg/mL in the test with Proteus vulgaris; 64 µg/mL in the test on Pseudomonas aeruginosa (Culture No. 6432, MHA); 8 µg/mL against Pseudomonas aeruginosa (Culture No. 6676, MHA). The MIC in the test on Pseudomonas aeruginosa (Culture No. 9191, MHA) is 8 µg/mL; against Pseudomonas aeruginosa (Culture No. 30133, MHA), 16 µg/mL; with Serratia marcescens it was 0.5 µg/mL; against Staphylococcus aureus it was greater than 128 µg/mL; against Streptococcus faecalis, greater than 128 µg/mL; against Streptococcus pneumoniae it was 128 µg/mL. Moreover, in the test with Streptococcus pyogenes, the MIC came out at 16 µg/mL. The “Minimum Inhibitory Concentration” value in the test with Staphylococcus aureus (Culture No. 3665) and in the test on Staphylococcus aureus (Culture No. 6685) was greater than 128 MCG per ML in each case.
